# Test results: patent US20140088006A1, “Stem Cell Mobilization and Tissue Repair and Regeneration” (Wellstat Therapeutics Corporation, priority 2011, published 2014)
# Several values for one entry are separate records, joined by “and”; a condition that tells them apart may be missing. Equal entries are not always repeated. No end group written: not given here.
# Columns and labels:
# [1] = tested on: full-thickness cutaneous wounds; test: Excisional wound healing model in db/db mice; format: in vivo; design: Wound area measurements, Day 14: unit not given here; conditions: for Wound healing rate: individual mice; for Wound healing rate / Wound area measurements, Day 14 / Wound area, Percent of original size: 5 mg/kg; for Wound area measurements, Day 14 / Wound area, Percent of original size: individual wounds
# Experimental: The average time to wound closure between db/db mice and non-diabetic C57BL6 mice was compared in a pilot experiment. Paired 6-mm full-thickness cutaneous wounds were made on the dorsa of mice after depilation with a sterile Miltex biopsy punch (VWR #21909-144). To prevent wound contraction during the healing process, 0.5 g/mL polyisobutyl methacrylate (Sigma #445754) in toluene (Sigma #244511) was applied over wounds 24 hours after wounding. After methacrylate hardened, a transparent dressing (Tagaderm, Lab Safety Supply #53379) was placed over wounds. Two groups of mice (5 mice per group) received intravenous injections of either Vehicle or Compound X (5 mg/kg) starting on day one post wounding and continuing daily for four consecutive days at Zeitgeber time 4 (ZT4), 4 hr after onset of light to time mobilization of stem cells with circadian oscillations (Frenette et. al. 2008).
# Digital photographs of the wounds were taken on days 0, 7, 10 and 14. Wound areas were measured by manually tracing the border of unhealed area and quantified as a percent area of the original wound size. The size of the traced area was calculated automatically using the Image J (NIH) analysis program. The following calculation was used to determine the wound healing rate: (Area of original wound−Area of remaining wound)÷Area of original wound×100. […]
# In the next experiment, 2 groups of db/db mice (6 mice per group) received paired 6-mm full-thickness cutaneous wounds. Mice then received intravenous injections of either Vehicle or Compound X (5 mg/kg) starting on day one post wounding and continuing daily for four consecutive days at ZT4. Wounds were monitored until complete closure in control group on day 21. To limit wound contraction during the healing process, a donut shaped silicone splint was centered on the wound and glued (cyanoacrylate adhesive) to the skin.
# Ten mice were treated per group with 3 mice from each group being sacrificed for histology at day 10 post-wounding. Wound closure in the Compound X treated group was mostly achieved by the 14th day, while control wounds were closed between days 18-21 post-wounding. […] This was similar to data generated in previous experiments.
# [2] = tested on: CFU-GEMM / CFU-GM progenitor cells; test: CFU colony assay of peripheral blood after 4 daily subcutaneous injections; format: in vivo, C57Bl/6 male mice; conditions: for CFU-GEMM number, AVG / CFU-GEMM number: 1 hr after injection; for CFU-GEMM number: individual dishes
# Experimental: This example is based on a protocol for a 4-day course of once-daily Compound X injections into C57Bl/6 male mice similar to G-CSF. Two effective dose levels of Compound X were found previously to mobilize HSC 1 hr after single injection and were selected for this experiment. Four-month old C57Bl/6 male mice (Jackson Laboratories) were subcutaneously injected with 0.9% saline, 125 μg/kg Compound X or 250 μg/kg Compound X on days 1, 2, 3 and 4 as described in Table 4. Each day, one-hour post injections, peripheral blood from 3 mice per group was harvested from the orbital plexus into EDTA-containing tubes. On day 4, a femur and spleen were also removed from mice to assess by FACS whether any toxicity aroused from repeated injections of Compound X.
# As in the previous example to determine mobilization of colony-forming cells out of the bone marrow, mononuclear cells from peripheral blood were plated into MethoCult 3434 media (Stem Cell Technologies). Briefly, after white blood cell counting, the remaining peripheral blood was diluted (1:1, v/v) with 0.9% saline (APP Pharmaceutical) and layered (2:1, v/v) onto 1-Step™1.077 A (Accurate Chemicals) in 15-ml centrifuge tubes. Cells were centrifuged at 600×g for 20 min at room temperature. The mononuclear cells were harvested from the interface between the plasma layer and the 1-Step™ A solution using a 1-ml syringe and blunt-end needle. The cells were transferred to 15-ml centrifuge tubes and washed twice in 1×PBS. Cells were resuspended in 1 ml of IMDM and cell counts were obtained using the Coulter counter. Cells were placed into 35-mm Petri dishes at 200,000 cells per dish with 5 dishes per group. Cells incubated for 10 days in a 37° C. and 5% CO2 humidified incubator. CFU colonies were then scored using an inverted microscope—CFU-GM detected on day 7 and CFU-GEMM—on day 10. Data presented in Tables 7, 8 and 9, FIGS. 3 and 4.
# [3] = tested on: white blood cells in peripheral blood; test: White blood cell count in peripheral blood after single subcutaneous injection; format: in vivo, C57Bl6 mice; conditions: for White Blood Cell counts: Cell Count: individual mice
# Experimental: C57Bl6 male mice, from 8 weeks to 4 month of age, from Harlan were used. Mice received subcutaneous injections of saline, Compound X (50 μg/kg) or Compound X (250 μg/kg). After 1 and 4 hours, mice were anesthetized and blood was collected through the orbital sinus with heparinized capillary tubes. 20 μl of blood was removed from each tube for WBC counts;
# In this experiment, C57Bl6 mice received subcutaneous injections of PBS, Compound X (250 μg/kg) or AMD3100 (5 mg/kg). After 1 hr blood was collected through the orbital sinus with heparinized capillary tubes. Blood from each group was pooled, counted and mononuclear cells were isolated by density gradient separation. Cells were washed, counted and plated at 100,000 per dish (5 dishes/group) for CFU-GEMM and CFU-GM colonies. CFU-GEMM colonies were scored on day 14, while CFU-GM colonies on day 7 after plating in MC3434 (Stem cell Technology).
# [4] = i.v. 5 mg/kg daily for 4 days, Day 7
# [5] = i.v. 5 mg/kg daily for 4 days, Day 10
# [6] = second experiment, i.v. 5 mg/kg daily for 4 days, 14 days post-wounding
sequence,measurement,setting,value
"FPHFDLSHGSAQV [Compound X, tridecapeptide that acts on stem cells]","Wound healing rate, Average",[1]; [4],14.22%
same,Wound healing rate,[1]; [4],5.14% and 6.40% and 7.85% and 8.83% and 42.89%
same,"Wound healing rate, Average",[1]; [5],38.68%
same,Wound healing rate,[1]; [5],17.47% and 13.96% and 65.36% and 17.51% and 79.10%
same,wound closure,"[1]; i.v. 5 mg/kg daily for 4 days, ten days after wounding",39%
same,"Wound area measurements, Day 14","[1]; second experiment (6 mice per group, silicone splint), i.v. 5 mg/kg daily for 4 days",5865 and 19152 and 50090 and 21199 and 49486 and 3603 and 24952 and 59032 and 74676 and 52782 and 11094 and 58870
same,"Wound area, Percent of original size, Average",[1]; [6],8.05%
same,"Wound area, Percent of original size",[1]; [6],1.11% and 5.19% and 10.08% and 7.02% and 10.48% and 0.82% and 4.45% and 12.48% and 14.28% and 13.38% and 2.48% and 14.93%
same,"Wound area measurements, Day 14","[1]; third experiment (ten mice per group), i.v. 5 mg/kg",4104 and 24930 and 972 and 100098 and 7440 and 2808 and 324 and 78 and 180 and 21924 and 53715 and 22554 and 20406 and 168663
same,wounds closed by day 14 (95%-100% closure),"[1]; third experiment, i.v. 5 mg/kg",11 of 14
same,"Wound area, Percent of original size","[1]; third experiment, i.v. 5 mg/kg, 14 days post-wounding",0.83% and 5.59% and 0.19% and 18.81% and 1.56% and 0.61% and 0.06% and 0.02% and 0.03% and 4.11% and 10.3% and 5.11% and 5.24% and 29.82%
same,time to wound closure,"[1]; third experiment, i.v. 5 mg/kg, control closed between days 18-21",≤ 14 days
same,"CFU-GEMM number, AVG","[2]; 125 μg/kg s.c. daily, Day 1",2.4 per 100000 mononuclear cells
same,CFU-GEMM number,"[2]; 125 μg/kg s.c. daily, Day 1",2 per 100000 mononuclear cells (4×) and 4 per 100000 mononuclear cells
same,"CFU-GEMM number, AVG","[2]; 125 μg/kg s.c. daily, Day 2",2.8 per 100000 mononuclear cells
same,CFU-GEMM number,"[2]; 125 μg/kg s.c. daily, Day 2",5 per 100000 mononuclear cells and 3 per 100000 mononuclear cells (2×) and 1 per 100000 mononuclear cells and 2 per 100000 mononuclear cells
same,"CFU-GEMM number, AVG","[2]; 125 μg/kg s.c. daily, Day 3",0.4 per 100000 mononuclear cells
same,CFU-GEMM number,"[2]; 125 μg/kg s.c. daily, Day 3",1 per 100000 mononuclear cells (2×) and 0 per 100000 mononuclear cells (3×)
same,"CFU-GEMM number, AVG","[2]; 125 μg/kg s.c. daily, Day 4",0.8 per 100000 mononuclear cells
same,CFU-GEMM number,"[2]; 125 μg/kg s.c. daily, Day 4",0 per 100000 mononuclear cells (2×) and 2 per 100000 mononuclear cells and 1 per 100000 mononuclear cells (2×)
same,increase in multilineage CFU-GEMM colonies vs saline,"[2]; 250 μg/kg over 4 days, all days",≥ 2 fold
same,"CFU-GEMM number, AVG","[2]; 250 μg/kg s.c. daily, Day 1",2.6 per 100000 mononuclear cells
same,CFU-GEMM number,"[2]; 250 μg/kg s.c. daily, Day 1",4 per 100000 mononuclear cells (2×) and 1 per 100000 mononuclear cells and 2 per 100000 mononuclear cells (2×)
same,"CFU-GEMM number, AVG","[2]; 250 μg/kg s.c. daily, Day 2",3.6 per 100000 mononuclear cells
same,CFU-GEMM number,"[2]; 250 μg/kg s.c. daily, Day 2",2 per 100000 mononuclear cells and 6 per 100000 mononuclear cells (2×) and 3 per 100000 mononuclear cells and 1 per 100000 mononuclear cells
same,"CFU-GEMM number, AVG","[2]; 250 μg/kg s.c. daily, Day 3",2.8 per 100000 mononuclear cells
same,CFU-GEMM number,"[2]; 250 μg/kg s.c. daily, Day 3",2 per 100000 mononuclear cells (2×) and 4 per 100000 mononuclear cells and 3 per 100000 mononuclear cells (2×)
same,"CFU-GEMM number, AVG","[2]; 250 μg/kg s.c. daily, Day 4",4 per 100000 mononuclear cells
same,CFU-GEMM number,"[2]; 250 μg/kg s.c. daily, Day 4",4 per 100000 mononuclear cells (3×) and 3 per 100000 mononuclear cells and 5 per 100000 mononuclear cells
same,increase in CFU-GEMM vs saline,"[2]; 250 μg/kg, day 3",4.7 fold
same,mobilization of granulocytic and macrophage precursors CFU-GM,[2]; s.c. daily for 4 days,did not affect mobilization
same,White blood cell count: Cell Count,"[3]; s.c. 250 μg/kg, 1 hr, pooled blood",7.2e+06 mL⁻¹
same,White Blood Cell counts: Cell Count,"[3]; single s.c. 50 μg/kg, 1 hour",1.41e+07 mL⁻¹ and 7.8e+06 mL⁻¹ and 9.6e+06 mL⁻¹
same,White Blood Cell counts: Cell Count,"[3]; single s.c. 50 μg/kg, 4 hours",2.22e+07 mL⁻¹ and 6.9e+06 mL⁻¹ and 1e+07 mL⁻¹
same,White Blood Cell counts: Cell Count,"[3]; single s.c. 250 μg/kg, 1 hour",9.6e+06 mL⁻¹ and 9.2e+06 mL⁻¹ and 1.79e+07 mL⁻¹
same,White Blood Cell counts: Cell Count,"[3]; single s.c. 250 μg/kg, 4 hours",1.67e+07 mL⁻¹ and 1.46e+07 mL⁻¹ and 1.03e+07 mL⁻¹
same,egress of cells from bone marrow into peripheral blood (white blood cell count),[3]; single s.c. 50 or 250 μg/kg,did not cause massive egress of cells
